# In patent publication US20260364080A1, “PYRAZOLO-PYRIMIDINONE COMPOUNDS FOR USE IN METHODS OF INHIBITING WEE1 A KINASE” (Acrivon Therapeutics, Inc., priority 2023, published 2026):
# Like-named read-outs stand apart in the source and are kept apart here.
# Key:
# [1] = target: T1, recombinant human Wee1A kinase (Homo sapiens, UniProt P30291); assay: Wee1A kinase binding assay (LanthaScreen Eu time-resolved FRET)
# T1 construct: full length Wee1 kinase was expressed by baculovirus in insect cells; purchased Invitrogen PV3817; host or cells: insect cells (baculovirus)
# Protocol: This time resolved-FRET binding assay was performed in white 384-well low volume plates (Greiner, cat #784075), at room temperature in kinase buffer A (KBA; Invitrogen cat #PV3189), consisting of 50 mM HEPES-NaOH (pH 7.5), 0.01% Brij-35, 10 mM MgCl2, and 1 mM EGTA. 5 μL of compound (diluted in reaction buffer, to 1% DMSO) were added to various wells in the plate, followed by 5 μL each of recombinant human Wee1A kinase (full length Wee1 kinase was expressed by baculovirus in insect cells using a N-terminal GST tag (MW: 99.1 kDa) (Invitrogen cat #PV3817) and LanthaScreen Eu-anti-GST antibody (Invitrogen, cat #PV5594). After this, 5 μL of kinase tracer 178 (Invitrogen, cat #PV5593) was added to the plate and the plate was incubated for 60 minutes at room temperature. The final assay conditions in each well were: 30 nM tracer 178, 5 nM Wee1A kinase and 2 nM Eu-labeled antibody in total assay volume of 15 μL. An Envision 2104 (Perkin-Elmer) Plate Reader with the following time-resolve fluorescence setting was used for performing LanthaScreen kinase binding assay. • Excitation 320 nm (30 nm bandpass) • Kinase Tracer Emission 665 nm (10 nm bandpass) • LanthaScreen Eu-anti-Tag Antibody Emission 615 nm (10 nm bandpass) • Dichroic Mirror Instrument dependent • Delay Time 100 μs • Integration Time 200 μs
# (§1) To calculate the emission ratio, the acceptor/tracer emission ([…]) was divided by the antibody/donor emission ([…]) and the average of duplicate measurement was used for calculations. Data plotting, analysis of binding, and curve fitting was done using Excel add-in XLfit version 5.5.0.5 (IDBS, Guildford, United Kingdom). […] “NT” means not tested.
# [2] = target: T2, Wee1A kinase (CDK1 Tyr15 phosphorylation in ACHN renal cell carcinoma cells) (Homo sapiens, UniProt P30291); assay: High-content imaging of pCdk1 Y15, Wee1A kinase target engagement in ACHN cells; assay type: cell-based
# T2 construct: pCDK1 Tyr15 immunofluorescence read-out
# Protocol: Each of an ACHN renal cell carcinoma cell line (ATCC) and a DAOY medulloblastoma cell line, and an A427 lung cancer line were cultured in Minimum Essential Medium Eagle supplemented with 10% fetal calf serum (Sigma), 1% Penicillin-Streptomycin and 10 mM HEPES buffer (HyClone). Cell cultures were kept in a humidified incubator at 37 °C and 5% CO2. Cells were routinely tested for Mycoplasma contamination.
# For target engagement assessment of Wee1A kinase inhibition, high-content imaging of ACHN renal cell carcinoma cells was used for quantification of CDK1 phosphorylated on tyrosine 15 by immunofluorescence (“IF”). 20,000 cells per well were seeded in tissue culture treated 96 well plates and treated with compounds at concentrations ranging from 7 to 5,000 nM or from 0.3 to 200 nM for 4h. Cells were fixated for 15 minutes in 4% paraformaldehyde solution, washed in PBS and permeabilized using 0.2% Triton X-100. Blocking was performed for 1 h at RT using Blocker FL Fluorescent Blocking Buffer (Thermo Scientific), thereafter cells were incubated with primary antibody (rabbit anti-pCDK1 Y^15, #4539, Cell Signaling Technology) at 4 °C ON. Alexa Fluor Plus 647 labelled goat anti-rabbit (A32733, Thermo Scientific) was used as secondary antibody. After washing in PBS, nuclei were stained with DAPI solution for 10 min at RT, protected from light. Cells were imaged using an ImageXpress Pico automated imaging system and CellReporter Xpress software (Molecular Devices). The percentage of cells with nuclear positivity for pCdk1 Y^15 compared to DMSO control was determined for each well and drug dose response curves and EC50 values were calculated and visualized using GraphPad Prism. Target engagement for Wee1A kinase can also be measured using the same AlphaLISA assay in OVCAR3 cells, an ovarian cancer cell line. NIH:OVCAR-3 (OVCAR3) cells are cultured in RPMI-1640 medium supplemented with 0.01 mg/ml insulin, 20% FBS, 1% Penicillin-Streptomycin and 10 mM HEPES buffer. 14,000 cells per well are seeded into 96 well tissue culture plates in full medium. Twenty-four hours post seeding, cells are treated with compound for 4 hours at concentrations ranging from 0.017 nM to 1000 nM.
# [3] = target: T3, Myt1 kinase (recombinant PMYT-1) (Homo sapiens, UniProt Q99640); assay: Myt1 kinase binding assay (LanthaScreen Eu Kinase Binding Assay); conditions: 3 nM tracer 178, 2.5 nM PMYT-1, 1 nM Eu-labeled antibody; read-out: Myt1 kinase Binding IC50
# T3 construct: full length PMYT-1 was expressed by baculovirus in insect cells; purchased Invitrogen A30984; host or cells: insect cells (baculovirus)
# T3 sequence (Q99640 1-499): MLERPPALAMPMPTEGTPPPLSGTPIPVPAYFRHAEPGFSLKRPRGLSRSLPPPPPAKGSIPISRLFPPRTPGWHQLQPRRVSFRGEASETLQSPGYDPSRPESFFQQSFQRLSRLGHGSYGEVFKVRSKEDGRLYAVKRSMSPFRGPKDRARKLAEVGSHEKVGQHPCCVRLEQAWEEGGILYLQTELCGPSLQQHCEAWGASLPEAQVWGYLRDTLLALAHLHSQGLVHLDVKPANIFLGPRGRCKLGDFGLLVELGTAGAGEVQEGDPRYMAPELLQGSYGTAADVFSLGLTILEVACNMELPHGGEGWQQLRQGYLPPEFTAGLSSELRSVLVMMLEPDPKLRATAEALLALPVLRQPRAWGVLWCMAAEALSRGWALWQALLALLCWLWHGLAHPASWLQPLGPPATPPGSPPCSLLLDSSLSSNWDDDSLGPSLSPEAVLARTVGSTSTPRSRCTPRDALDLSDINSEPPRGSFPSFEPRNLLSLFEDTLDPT
# Protocol: as §1
# We used a LanthaScreen Europium (Eu) Kinase Binding Assay to determine the binding affinities (IC50) of compounds to Myt1 kinase. […] “NT” designates that the compound was not tested in this assay.
# [4] = 30 nM tracer 178, 5 nM Wee1A kinase, 2 nM Eu-labeled antibody, 60 minutes at room temperature, read-out: Wee1A kinase Binding IC50
# [5] = 4 h treatment, nuclear positivity for pCdk1 Y15 vs DMSO control, read-out: CDK1 Tyr15 Phosphorylation EC50
# [6] = read-out: CDK1 Tyr15 Phosphorylation EC50, 4 h treatment, nuclear positivity for pCdk1 Y15 vs DMSO control
# T2 sequence (P30291 whole entry): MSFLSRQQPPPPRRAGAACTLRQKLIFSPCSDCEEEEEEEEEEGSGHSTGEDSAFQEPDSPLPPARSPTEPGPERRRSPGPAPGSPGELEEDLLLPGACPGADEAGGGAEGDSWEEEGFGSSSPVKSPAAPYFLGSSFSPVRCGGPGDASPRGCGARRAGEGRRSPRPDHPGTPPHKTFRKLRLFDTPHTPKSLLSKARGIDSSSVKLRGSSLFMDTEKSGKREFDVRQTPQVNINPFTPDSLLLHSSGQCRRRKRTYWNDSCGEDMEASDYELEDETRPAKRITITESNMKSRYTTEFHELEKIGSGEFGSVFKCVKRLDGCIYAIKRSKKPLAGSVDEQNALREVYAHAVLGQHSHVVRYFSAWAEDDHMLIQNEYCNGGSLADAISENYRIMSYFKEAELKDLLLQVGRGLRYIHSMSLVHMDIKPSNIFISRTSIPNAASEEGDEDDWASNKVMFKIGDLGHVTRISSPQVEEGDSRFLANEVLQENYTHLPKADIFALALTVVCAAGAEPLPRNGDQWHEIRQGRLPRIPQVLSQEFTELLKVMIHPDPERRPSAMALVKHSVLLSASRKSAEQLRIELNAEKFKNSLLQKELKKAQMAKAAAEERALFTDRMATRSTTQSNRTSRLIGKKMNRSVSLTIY
# T1 sequence (P30291 whole entry): as above
"IC50 [1, 4]","EC50 [2, 5]",IC50 [3],IC50 [1],"EC50 [2, 6]",Structure (SMILES)
< 10 nM,500 to 1000 nM,,,,"C=CCn1c(=O)c2cnc(Nc3cnn(C)c3)nc2n1-c1cccc(OC2CCN(C)CC2)c1 [Compound 221, 2-allyl-1-[m-(1-methyl-4-piperidyloxy)phenyl]-6-(1-methyl-4-pyrazolylamino)-1,2-dihydro-3H-1,2,5,7-tetraazainden-3-one]"
< 10 nM,< 100 nM,,,,"C=CCn1c(=O)c2cnc(Nc3ccc4c(cnn4C)c3)nc2n1-c1cccc(OC2CCN(C3COC3)CC2)n1 [Compound 349, 2-allyl-6-((1-methyl-1H-indazol-5-yl)amino)-1-(6-((1-(oxetan-3-yl)piperidin-4-yl)oxy)pyridin-2-yl)-1,2-dihydro-3H-pyrazolo[3,4-d]pyrimidin-3-one]"
< 10 nM,100 to 500 nM,,,,"C=CCn1c(=O)c2cnc(Nc3ccnc(C)c3)nc2n1-c1cccc(OC2CCN(C)CC2)c1 [Compound 219, 2-allyl-1-[m-(1-methyl-4-piperidyloxy)phenyl]-6-(2-methyl-4-pyridylamino)-1,2-dihydro-3H-1,2,5,7-tetraazainden-3-one]"
,< 100 nM,,,,"C=CCn1c(=O)c2cnc(Nc3ccc4c(cnn4C)c3)nc2n1-c1cccc(OC2CCN(C)C(C)C2)n1 [Compound 402, rel-2-allyl-1-(6-(((2R,4R)-1,2-dimethylpiperidin-4-yl)oxy)pyridin-2-yl)-6-((1-methyl-1H-indazol-5-yl)amino)-1,2-dihydro-3H-pyrazolo[3,4-d]pyrimidin-3-one]"
,,,< 10 nM,> 1000 nM,"C=CCn1c(=O)c2cnc(Nc3ccc4c(cnn4C)c3)nc2n1-c1cccc(N(C)C2CCN(C)CC2)c1 [Compound 225, 1-{m-[N-methyl (1-methyl-4-piperidyl)amino]phenyl}-2-allyl-6-(1-methyl-1H-indazol-5-ylamino)-1,2-dihydro-3H-1,2,5,7-tetraazainden-3-one]"

# More lines, now with the values behind:
Structure (SMILES),"IC50 [1, 4]","EC50 [2, 5]",IC50 [3],IC50 [1],"EC50 [2, 6]"
"C=CCn1c(=O)c2cnc(Nc3cnn(C)c3)nc2n1-c1cccc(OC2CCNCC2)c1 [Compound 224, 2-allyl-6-(1-methyl-4-pyrazolylamino)-1-[m-(4-piperidyloxy)phenyl]-1,2-dihydro-3H-1,2,5,7-tetraazainden-3-one]",< 10 nM,> 1000 nM,,,
"C=CCn1c(=O)c2cnc(Nc3ccc(OC)nc3)nc2n1-c1cccc(OC2CCNCC2)n1 [Compound 251, 2-allyl-6-(6-methoxy-3-pyridylamino)-1-[6-(4-piperidyloxy)-2-pyridyl]-1,2-dihydro-3H-1,2,5,7-tetraazainden-3-one]",< 10 nM,,20 to 100 nM,,
"C=CCn1c(=O)c2cnc(Nc3ccc(Cl)cc3)nc2n1-c1cccc(N(C)[C@H]2CCCN(C)C2)n1 [Compound 164, 1-(6-{[(S)-1-methyl-3-piperidyl]-N-methylamino}-2-pyridyl)-2-allyl-6-(p-chlorophenylamino)-1,2-dihydro-3H-1,2,5,7-tetraazainden-3-one]",10 to 100 nM,,> 500 nM,,
"C=CCn1c(=O)c2cnc(Nc3ccc4cnn(C)c4c3)nc2n1-c1cccc(OC2CCNCC2)n1 [Compound 359, 2-allyl-6-((1-methyl-1H-indazol-6-yl)amino)-1-(6-(piperidin-4-yloxy)pyridin-2-yl)-1,2-dihydro-3H-pyrazolo[3,4-d]pyrimidin-3-one]",< 10 nM,< 100 nM,,,
"C=CCn1c(=O)c2cnc(Nc3cnn(C)c3)nc2n1-c1cccc(O[C@H]2C[C@@H]3CC[C@H]2CN3C)n1 [Compound 294, 6-[(1-methyl-1H-pyrazol-4-yl)amino]-1-(6-{[(1S,4S,5S)-2-methyl-2-azabicyclo[2.2.2]octan-5-yl]oxy}pyridin-2-yl)-2-(prop-2-en-1-yl)-1H,2H,3H-pyrazolo[3,4-d]pyrimidin-3-one]",10 to 100 nM,,,,
"C=CCn1c(=O)c2cnc(Nc3ccnc(C)c3)nc2n1-c1cccc(OC2CCNCC2)c1 [Compound 222, 2-allyl-6-(2-methyl-4-pyridylamino)-1-[m-(4-piperidyloxy)phenyl]-1,2-dihydro-3H-1,2,5,7-tetraazainden-3-one]",< 10 nM,> 1000 nM,,,
"C=CCn1c(=O)c2cnc(Nc3ccc(Cl)cc3)nc2n1-c1cccc(N[C@H]2CCCN(C)C2)n1 [Compound 167, 1-{6-[(S)-1-methyl-3-piperidylamino]-2-pyridyl}-2-allyl-6-(p-chlorophenylamino)-1,2-dihydro-3H-1,2,5,7-tetraazainden-3-one]",10 to 100 nM,,100 to 500 nM,,
"CCn1c(=O)c2cnc(Nc3ccc4c(cnn4C)c3)nc2n1-c1cccc(N(C)C2CCNCC2)n1 [Compound 286, 1-[6-(N-methyl-N-4-piperidylamino)-2-pyridyl]-2-ethyl-6-(1-methyl-1H-indazol-5-ylamino)-1,2-dihydro-3H-1,2,5,7-tetraazainden-3-one]",,,,< 10 nM,> 1000 nM
"C=CCn1c(=O)c2cnc(Nc3cnn(C)c3)nc2n1-c1cccc(O[C@@H]2C[C@@H]3CC[C@H]2CN3C)n1 [Compound 295, 6-[(1-methyl-1H-pyrazol-4-yl)amino]-1-(6-{[(1S,4S,5R)-2-methyl-2-azabicyclo[2.2.2]octan-5-yl]oxy}pyridin-2-yl)-2-(prop-2-en-1-yl)-1H,2H,3H-pyrazolo[3,4-d]pyrimidin-3-one]",10 to 100 nM,,,,
"C=CCn1c(=O)c2cnc(Nc3ccc4ncccc4c3)nc2n1-c1cccc(OC2CCN(C)CC2)n1 [Compound 325, 2-allyl-1-[6-(1-methyl-4-piperidyloxy)-2-pyridyl]-6-(6-quinolylamino)-1,2-dihydro-3H-1,2,5,7-tetraazainden-3-one]",< 10 nM,,20 to 100 nM,,
"C=CCn1c(=O)c2cnc(Nc3ccc(Cl)cc3)nc2n1-c1cccc(N(C)[C@H]2CCCNC2)n1 [Compound 173, 1-{6-[N—(S)-3-piperidyl-N-methylamino]-2-pyridyl}-2-allyl-6-(p-chlorophenylamino)-1,2-dihydro-3H-1,2,5,7-tetraazainden-3-one]",10 to 100 nM,,> 500 nM,,
